Results taken from ChEMBL document CHEMBL1201862, “PubChem BioAssay data set” (2004).
Activity calls are given as the source filed them.

Experiments:
Hexokinase HKDC1 = target: T1, Hexokinase HKDC1 (Homo sapiens, UniProt Q2TB90); test: HKDC1 hexokinase inhibitors, dose response, biochemical, W721R variant (AID 504729); type: functional
T1 sequence (Q2TB90 whole entry): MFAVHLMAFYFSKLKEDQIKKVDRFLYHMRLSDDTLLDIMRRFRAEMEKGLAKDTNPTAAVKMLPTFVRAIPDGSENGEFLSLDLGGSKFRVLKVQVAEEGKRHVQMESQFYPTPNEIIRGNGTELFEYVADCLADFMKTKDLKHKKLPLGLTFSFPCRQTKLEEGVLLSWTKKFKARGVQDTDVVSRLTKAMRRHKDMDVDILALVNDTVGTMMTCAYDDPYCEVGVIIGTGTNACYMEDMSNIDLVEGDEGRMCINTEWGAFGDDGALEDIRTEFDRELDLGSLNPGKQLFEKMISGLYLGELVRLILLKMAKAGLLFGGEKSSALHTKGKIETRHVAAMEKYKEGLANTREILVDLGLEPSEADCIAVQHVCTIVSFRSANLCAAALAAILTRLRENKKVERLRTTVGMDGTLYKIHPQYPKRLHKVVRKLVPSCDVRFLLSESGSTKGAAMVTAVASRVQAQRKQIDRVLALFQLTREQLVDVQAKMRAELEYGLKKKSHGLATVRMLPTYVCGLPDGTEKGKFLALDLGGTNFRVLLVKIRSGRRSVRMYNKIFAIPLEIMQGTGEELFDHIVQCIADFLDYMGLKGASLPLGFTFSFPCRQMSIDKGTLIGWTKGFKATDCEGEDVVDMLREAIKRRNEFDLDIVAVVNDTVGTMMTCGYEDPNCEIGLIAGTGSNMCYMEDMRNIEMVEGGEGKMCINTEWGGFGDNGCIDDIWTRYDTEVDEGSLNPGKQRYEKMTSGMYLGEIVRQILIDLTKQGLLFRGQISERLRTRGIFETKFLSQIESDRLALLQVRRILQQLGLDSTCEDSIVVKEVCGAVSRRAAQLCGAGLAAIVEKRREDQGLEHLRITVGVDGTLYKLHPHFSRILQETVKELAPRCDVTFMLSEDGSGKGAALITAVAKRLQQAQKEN

[1] = target: T2, Small ubiquitin-related modifier 2 (Homo sapiens, UniProt P61956); test: SUMO2–SIM peptide binding inhibitors, dose response, selectivity assay for SUMO1 interaction inhibitor project, biochemical, fluorescence polarization, uHTS hits (AID 624385); type: functional; conditions: read-out: IC50_Mean
[2] = target: T3, Polyadenylate-binding protein 1 (Homo sapiens, UniProt P11940); test: PABP1 MLLE–PAM2 interaction inhibitors, dose response, miRNA deadenylation inhibitor project, biochemical, fluorescence polarization, Cy5-PAM2 peptide, secondary (AID 602260); type: functional; conditions: read-out: IC50_Mean
[3] = target: T4, Small ubiquitin-related modifier 1 (Homo sapiens, UniProt P63165); test: inhibitors of SUMO1 partner interactions, dose response, biochemical, FRET (AID 624383); type: functional; conditions: read-out: IC50_Mean
[4] = target: T2, Small ubiquitin-related modifier 2; test: inhibitors of SUMO2 protein-protein interaction, dose response, selectivity assay for SUMO1 interaction inhibitor project, biochemical, FRET, human SUMO2, uHTS hits (AID 624384); type: functional; conditions: read-out: IC50_Mean
Salmon testes DNA = test: DNA intercalators displacing acridine orange, dose response, artefact control for KSHV LANA DNA-binding inhibitor project, biochemical, fluorescence polarization, cherry-picked samples, set 2 (AID 504727); parameters: species or system Salmonidae
ORF 73 = target: T5, ORF 73 (Human herpesvirus 8, UniProt O40947); test: inhibitors of C-LANA binding to LBS DNA, dose response, biochemical, fluorescence polarization, cherry-picked samples (AID 504725); parameters: species or system Human gammaherpesvirus 8;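 also: fluorescence polarization of a labeled DNA duplex reporting LANA DNA binding; potency is for inhibitors that block LANA binding to the DNA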
T5 sequence (O40947 whole entry): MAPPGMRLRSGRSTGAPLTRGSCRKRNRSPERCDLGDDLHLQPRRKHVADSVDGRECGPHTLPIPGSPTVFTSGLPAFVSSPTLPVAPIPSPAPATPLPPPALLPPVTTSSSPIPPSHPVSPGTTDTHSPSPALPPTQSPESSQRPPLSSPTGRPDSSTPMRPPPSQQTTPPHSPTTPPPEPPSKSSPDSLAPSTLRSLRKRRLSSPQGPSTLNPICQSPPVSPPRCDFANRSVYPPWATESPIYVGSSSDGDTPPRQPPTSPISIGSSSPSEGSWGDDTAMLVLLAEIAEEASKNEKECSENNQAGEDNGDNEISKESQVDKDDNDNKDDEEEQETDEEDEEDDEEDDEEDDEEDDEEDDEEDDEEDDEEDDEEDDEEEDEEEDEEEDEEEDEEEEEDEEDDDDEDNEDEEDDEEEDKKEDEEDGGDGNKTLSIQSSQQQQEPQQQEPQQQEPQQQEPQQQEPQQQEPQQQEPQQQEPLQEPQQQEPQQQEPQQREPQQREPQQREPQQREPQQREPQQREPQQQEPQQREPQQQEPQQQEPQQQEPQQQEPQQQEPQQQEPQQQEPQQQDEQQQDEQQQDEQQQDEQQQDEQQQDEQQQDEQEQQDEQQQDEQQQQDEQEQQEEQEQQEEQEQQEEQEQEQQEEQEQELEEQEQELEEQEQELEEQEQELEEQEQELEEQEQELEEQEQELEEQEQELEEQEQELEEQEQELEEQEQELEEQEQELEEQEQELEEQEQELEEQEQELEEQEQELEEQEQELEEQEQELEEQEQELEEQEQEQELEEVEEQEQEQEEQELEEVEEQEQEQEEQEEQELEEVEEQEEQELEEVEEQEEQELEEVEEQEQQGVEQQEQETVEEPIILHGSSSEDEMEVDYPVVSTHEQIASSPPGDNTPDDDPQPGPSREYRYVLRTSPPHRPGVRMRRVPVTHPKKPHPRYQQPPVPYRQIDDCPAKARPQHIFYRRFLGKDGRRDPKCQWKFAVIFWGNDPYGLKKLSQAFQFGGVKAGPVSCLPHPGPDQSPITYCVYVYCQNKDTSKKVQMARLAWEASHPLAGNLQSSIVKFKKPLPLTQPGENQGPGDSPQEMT

[5] = target: T6, Rac GTPase-activating protein 1 (Homo sapiens, UniProt Q9H0H5); test: MgcRacGAP GTPase-activating activity inhibitors, confirmation, biochemical, ADP Hunter fluorescence, primary and confirmatory (AID 624330); type: functional
T6 sequence (Q9H0H5 whole entry): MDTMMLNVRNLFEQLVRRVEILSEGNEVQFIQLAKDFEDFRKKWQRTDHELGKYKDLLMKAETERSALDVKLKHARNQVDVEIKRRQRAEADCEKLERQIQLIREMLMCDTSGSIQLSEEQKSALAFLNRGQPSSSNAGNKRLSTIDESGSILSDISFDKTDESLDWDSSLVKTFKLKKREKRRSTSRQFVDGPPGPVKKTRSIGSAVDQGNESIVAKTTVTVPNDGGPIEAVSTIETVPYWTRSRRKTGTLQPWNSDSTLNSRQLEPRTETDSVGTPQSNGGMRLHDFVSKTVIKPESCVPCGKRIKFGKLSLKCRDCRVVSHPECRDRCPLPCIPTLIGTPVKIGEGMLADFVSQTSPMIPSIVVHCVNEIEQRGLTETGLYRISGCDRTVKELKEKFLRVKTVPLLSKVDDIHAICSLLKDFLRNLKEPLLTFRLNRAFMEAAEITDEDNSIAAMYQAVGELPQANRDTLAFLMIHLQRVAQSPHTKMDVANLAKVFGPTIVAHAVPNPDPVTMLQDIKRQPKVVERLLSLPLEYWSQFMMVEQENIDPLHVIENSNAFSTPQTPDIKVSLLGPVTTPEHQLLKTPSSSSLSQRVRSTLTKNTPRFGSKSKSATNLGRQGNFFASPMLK

Troponin, cardiac muscle = Troponin, cardiac muscle (Homo sapiens, UniProt P19429+P45379+P63316); test: inhibitors of cardiac thin filament calcium sensitivity, dose response, biochemical, fluorescence, cardiac regulated thin filaments, triplicate IC50 (AID 504742); type: protein-complex assay
[6] = target: T4, Small ubiquitin-related modifier 1; test: inhibitors of SUMO1 peptide binding, dose response, biochemical, fluorescence polarization, uHTS hits (AID 624382); type: functional; conditions: read-out: IC50_Mean
HeLa = test: HeLa cell cytotoxicity, dose response, cytotoxicity control, 24 h, cherry-picked samples (AID 504726); type: functional, cell-based; conditions: Homo sapiens;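 also: potency for cytotoxicity as loss of luminescence signal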
Genome polyprotein = Genome polyprotein (dengue virus type 2, UniProt P29990); test: Dengue-2 NS5 methyltransferase inhibitors, primary screen, biochemical, confirmation dose response (AID 588689); type: functional
[7] = target: T3, Polyadenylate-binding protein 1; test: PABP1 MLLE–PAM2 binding inhibitor potency, dose response, biochemical, fluorescence polarization, FITC-PAM2 peptide (AID 602259); type: functional; conditions: read-out: IC50_Mean
Estrogen receptor = target: T7, Estrogen receptor (Homo sapiens, UniProt P03372); test: potentiators of ERα–SRC-1 coactivator binding, dose response, biochemical, TR-FRET, ERα LBD (AID 737)
T7 sequence (P03372 whole entry): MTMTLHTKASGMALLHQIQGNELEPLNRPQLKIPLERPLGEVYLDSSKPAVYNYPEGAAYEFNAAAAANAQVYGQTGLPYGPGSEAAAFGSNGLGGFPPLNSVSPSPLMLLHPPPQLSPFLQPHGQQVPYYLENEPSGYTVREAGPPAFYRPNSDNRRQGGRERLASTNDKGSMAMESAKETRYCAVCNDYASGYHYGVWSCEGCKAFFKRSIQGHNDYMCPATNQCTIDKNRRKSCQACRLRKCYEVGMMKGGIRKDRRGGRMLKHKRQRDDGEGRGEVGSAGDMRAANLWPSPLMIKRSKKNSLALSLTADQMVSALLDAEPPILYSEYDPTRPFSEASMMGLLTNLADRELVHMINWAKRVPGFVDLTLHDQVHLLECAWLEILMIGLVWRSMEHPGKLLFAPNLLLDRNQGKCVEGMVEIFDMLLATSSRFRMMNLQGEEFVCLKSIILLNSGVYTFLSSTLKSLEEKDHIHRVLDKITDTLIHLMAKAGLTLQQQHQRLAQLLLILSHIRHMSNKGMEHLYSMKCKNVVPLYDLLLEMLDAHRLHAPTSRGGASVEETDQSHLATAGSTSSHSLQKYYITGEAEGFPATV

[8] = target: G-protein coupled receptor 55 (Homo sapiens, UniProt Q9Y2T6); test: GPR55 agonists via beta-arrestin recruitment, primary screen, imaging, U2OS cells, beta-arrestin-GFP redistribution (AID 1961); type: functional
[9] = target: T8, Short transient receptor potential channel 4 (Mus musculus, UniProt Q9QUQ5); test: TRPC4 positive allosteric modulators, dose response, cell-based, HEK293 TRPC4/mu-opioid, Fluo-4 calcium, EC20 DAMGO (AID 434941); type: functional
T8 sequence (Q9QUQ5 whole entry): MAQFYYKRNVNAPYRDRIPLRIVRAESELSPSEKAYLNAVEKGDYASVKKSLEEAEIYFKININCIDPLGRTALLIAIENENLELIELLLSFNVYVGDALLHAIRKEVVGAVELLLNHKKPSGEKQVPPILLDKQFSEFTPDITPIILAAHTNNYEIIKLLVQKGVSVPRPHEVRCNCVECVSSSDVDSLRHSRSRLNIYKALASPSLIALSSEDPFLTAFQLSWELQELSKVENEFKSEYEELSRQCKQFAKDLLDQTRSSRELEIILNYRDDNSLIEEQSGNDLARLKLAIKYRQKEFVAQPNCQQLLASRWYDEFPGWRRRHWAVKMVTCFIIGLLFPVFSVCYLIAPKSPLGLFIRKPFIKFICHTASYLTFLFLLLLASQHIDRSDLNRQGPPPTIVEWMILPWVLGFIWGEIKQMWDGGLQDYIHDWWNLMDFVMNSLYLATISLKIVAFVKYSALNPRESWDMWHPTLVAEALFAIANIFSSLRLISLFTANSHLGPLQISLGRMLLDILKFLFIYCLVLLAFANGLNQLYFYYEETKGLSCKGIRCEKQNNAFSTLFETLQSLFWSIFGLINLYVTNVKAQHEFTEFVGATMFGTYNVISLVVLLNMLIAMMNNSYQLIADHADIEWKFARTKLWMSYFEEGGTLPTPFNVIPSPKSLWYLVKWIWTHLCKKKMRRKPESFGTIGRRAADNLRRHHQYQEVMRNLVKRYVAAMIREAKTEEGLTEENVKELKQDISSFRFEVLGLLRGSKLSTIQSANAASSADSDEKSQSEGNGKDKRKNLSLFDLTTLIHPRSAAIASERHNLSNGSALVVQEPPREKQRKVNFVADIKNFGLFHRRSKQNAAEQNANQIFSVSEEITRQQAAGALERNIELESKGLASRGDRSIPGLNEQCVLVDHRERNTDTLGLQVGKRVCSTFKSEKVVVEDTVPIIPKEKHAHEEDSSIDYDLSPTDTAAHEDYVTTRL

[10] = target: Disintegrin and metalloproteinase domain-containing protein 17 (Homo sapiens, UniProt P78536); test: ADAM17 protease inhibitors, dose response, counter-screen for ADAM10 exosite inhibitor project, biochemical, quenched FRET substrate (AID 743253)
[11] = ADAM10 inhibitors, peptide cleavage, dose response, biochemical, QFRET (AID 743254);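 also: ADAM10 enzyme with the DM2 quenched FRET peptide as substrate; EDANS fluorescence gain as the protease cuts the substrate; inhibitor potency against ADAM10 proteolytic activity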

In the case of `O=S(=O)(O)c1ccc(O)c2cc(Nc3ccccc3)ccc12`, the IC50 (Hexokinase HKDC1) is reported as 9.14 µM (active), the IC50 [1] is reported as 7.83 µM (active) and the IC50 [2] is reported as > 66 µM (inactive). For the same compound, the IC50 [3] was 0.88 µM (active), the IC50 [4] was 0.58 µM (active) and the AC50 (Salmon testes DNA) was 98.3 µM (active). For the same compound, the AC50 (ORF 73) was 6.72 µM (active), the IC50 [5] was 19.6 µM (active) and the IC50 (Troponin, cardiac muscle) was 3.89 µM (active). The IC50 [6] was 11.6 µM (active), the AC50 (HeLa) was 233 µM (active) and the IC50 (Genome polyprotein) was 20 µM (active). For the same compound, the IC50 [7] was > 66 µM (inactive).

In the case of `Cc1noc(C)c1COC(=O)c1cc2c3ccccc3n(C)c2s1`, the EC50 (Estrogen receptor) is reported as 23.1 µM (active) and the EC50 [8] is reported as 20.4 µM (inactive).

In the case of `O=C(NCc1ccccc1)C1=C[C@H](c2ccc(Br)cc2)C[C@H](OCc2ccc(CO)cc2)O1`, the EC50 [9] is reported as 10.6 µM (active), the IC50 [10] is reported as > 69.5 µM (inactive) and the IC50 [11] is reported as > 69.5 µM (inactive).
